These are literature values, as cited in patent US11007171B2, “Treatment and prevention of joint disorders” (Summit Innovation Labs, LLC, priority 2017, dated 2021).

One data set deals with NF-κB. Also noted: key: ↓: Downregulate Inducers of arthritis.
The test system of data set [1] is experimental osteoarthritis. The following applies: intraarticular magnesium sulfate (MgSO4).
A further data set relates to NMDAR. More on the design: key: ↓: Downregulate Inducers of arthritis.
The test system of another data set is cartilage. The note with it: by inhibiting iNOS expression.
For data set [2], the system named is high fat diet-induced obese mice. The following applies: compared with controls.
The conditions of data set [3]: compared with vitamin E.
The test system of data set [4] is Porphyromonas gingivalis, Prevotella gingivalis, and Actinobacillus actinomycetemcomitans. The note with it: periodontopathic microorganisms.
The conditions of data set [5]: doses of a few grams a day in either humans or animals.
For data set [6], the system named is Collagen induced rheumatoid arthritis. The note with it: quercetin supplementation.
For data set [7] the following is noted: after 4 weeks, 500 mg/day.
The conditions of data set [8]: in vivo.
In data set [9] the test system is rats fed a high cholesterol diet.
The test system of a further data set is VEGF. Also noted: key: ↓: Downregulate Inducers of arthritis.
The subject of data set [10] is Human Chondrocytes Treated with Hydrogen Peroxide or Growth-Related Oncogene a.
The test system of the next data set is Runx2. Also noted: key: ↓: Downregulate Inducers of arthritis.
The next data set relates to P38 MAPK. More on the design: key: ↓: Downregulate Inducers of arthritis.
Data set [11] has as its system 23 fungi strains including Candida species. The following applies: fairly low concentration.
For the next data set, the system named is Bax. Also noted: key: ↓: Downregulate Inducers of arthritis.
Another data set concerns FGF. More on the design: key: ↓: Downregulate Inducers of arthritis.
The target in the next data set is mTOR (Homo sapiens, UniProt P42345). Also noted: key: ↓: Downregulate Inducers of arthritis.
Data set [12] relates to pigs with the equivalent of human metabolic syndrome.
Data set [13] concerns acute antigen-induced arthritis model.
A further data set deals with RA. The note with it: by suppressing IL-1β, TNF-α, NF-κB, COX2 and PGE2, MMPs, and arthritis index through induction of SIRT1.
Another data set concerns male C57BL/6J mice. The note with it: 0.4% (w/w), 4-8 week-old male C57BL/6J mice.
The next data set deals with mice fed high fat diet. The following applies: oral.
The test system of data set [14] is OA cartilage of animal model and IL-1β treated human chondrocytes. The following applies: resveratrol injection.
In data set [15] the test system is rheumatoid arthritis synovial fibroblast (RASF).
For data set [16], the system named is osteoarthritis chondrocytes.
The subject of a further data set is AP1. Also noted: key: ↓: Downregulate Inducers of arthritis.
Data set [17] relates to Human Articular Cartilage and Chondrosarcoma Cells.
The test system of data set [18] is advanced glycation end products stimulated chondrocytes.
A further data set has as its system C57BL/6 mice. The following applies: local intra-articular injection.
The test system of a further data set is HIF-2α. Also noted: key: ↓: Downregulate Inducers of arthritis.
Data set [19] concerns rabbit articular chondrocytes. The note with it: rabbit articular chondrocytes in vitro.
Data set [20] deals with human bone marrow-derived mesenchymal stem cells (hBMSCs). The following applies: especially at a concentration of 5 μM.

As for Magnesium, in the data set on NF-κB, the “Downregulate NF-κB” value was “↓”. Besides, the “cartilage degradation and chondrocyte apoptosis” value in data set [1] is “Reduced cartilage degradation and chondrocyte apoptosis deposition by blocking”. Further, the “Downregulate NMDAR” value in the data set on NMDAR is listed as “↓”.
For the compound `Oc1cc(O)c2c(c1)O[C@H](c1ccc(O)c(O)c1)[C@@H](O)[C@@H]2c1c(O)cc(O)c2c1O[C@H](c1ccc(O)c(O)c1)[C@@H](O)C2` [procyanidin B3], the “cartilage degradation and heterotopic ossification” value with cartilage is “Pcy B3 prevents cartilage degradation and heterotopic ossification (bone formation in”. For the same compound, in the data set with OA animal model, the OA progression result was “Pcy and components of Pcy (procyanidin B2 and B3) slowed OA progression,”.
`C=CCc1ccc(O)c(-c2ccc(O)c(CC=C)c2)c1` [honokiol]: in [2], the glucose tolerance result is reported as “improved”; the “plasma total cholesterol and glucose levels” value was “significantly reduced”. The “cytotoxic effect on human gingival cells” value in the data set with human gingival cells is given as “relatively low cytotoxic effect”. Moreover, in data set [3], the “antioxidant activity, potency relative to vitamin E” value is 1000 times. Besides, the antimicrobial activity entry in data set [4] is given as “significant antimicrobial activity”.
As for `O=c1c(O)c(-c2ccc(O)c(O)c2)oc2cc(O)cc(O)c12` [Quercetin, 3,5,7,3′,4′-pentahydroxyflavone], the “Downregulate NF-κB” value with NF-κB is given as “↓”. Also, the “expression of genes associated with mitochondrial biogenesis (PGC-1a and SIRT1), mitochondrial DNA content, and cytochrome-C concentration” value in the data set with mice (7 days, 12.5 or 25 mg/kg b.w., muscle and brain, mice) is given as “increases”. Also, the “maximal endurance capacity (time to fatigue) and voluntary wheel-running activity” value in the data set on mice (treadmill running test, compared with placebo-treated mice) is reported as “significantly increased”. Also, the side effects entry in data set [5] was “no side effects”. Further, in the data set on rat adjuvant arthritis, the “NF-κB activity, IL-1β, CRP, monocyte chemotactic protein-1” value is given as “Quercetin supplementation significantly reduced NF-κB activity, IL-1β, CRP,”; the plasma antioxidant activity result is “monocyte chemotactic protein-1, and increased plasma antioxidant activity [Gardi C,”. In addition, the “progression of RA (arthritis score and paw swelling), elastase activity, oxidative stress and NO expression” value in data set [6] is listed as “Quercetin supplementation (a) reduced progression of RA as indicated by a reduction”.
In the case of glucosyl-hesperidin [G-Hesperidin], the triglyceride level entry in data set [7] was “marked decrease”.
As to `C=CCc1ccc(O)c(-c2cc(CC=C)ccc2O)c1` [magnolol, 4-Allyl-2-(5-allyl-2-hydroxy-phenyl)phenol], the oral bioavailability in data set [8] is 4-5%. In addition, the “fasting blood glucose and plasma insulin levels” value with type 2 diabetic rats is on record as “reduced”. For the same compound, in data set [2], the glucose tolerance entry is “improved”; the “plasma total cholesterol and glucose levels” value was “significantly reduced”. Moreover, in the data set with human gingival cells, the “cytotoxic effect on human gingival cells” value is recorded as “relatively low cytotoxic effect”. The “antioxidant activity, potency relative to vitamin E” value in [3] is given as 1000 times. Moreover, in [4], the antimicrobial activity result is “significant antimicrobial activity”.
Take `COc1ccc([C@@H]2CC(=O)c3c(O)cc(O[C@@H]4O[C@H](CO[C@@H]5O[C@@H](C)[C@H](O)[C@@H](O)[C@H]5O)[C@@H](O)[C@H](O)[C@H]4O)cc3O2)cc1O` [hesperidin, hesperitin-7-O-rutinoside]: in [9], the “inhibition of liver cholesterol biosynthesis” value is 28.3% and the “inhibition of the esterification of hepatic cholesterol” value was 23.7%.
Take `OCCc1ccc(O)c(O)c1` [Hydroxytyrosol, 4-(2-Hydroxyethyl)-1,2-benzenediol]: the “Downregulate VEGF” value in the data set on VEGF is listed as “↓”. Besides, the “level of SIRT1 mRNA” value in [10] (in the presence of GROα) was “HT treatment significantly increased the level of SIRT1 mRNA in the presence of”. In addition, the “chondrocytes apoptosis, DNA damage” value in [10] (pretreatment of chondrocytes, oxidative stress or GROα) is given as “Pretreatment of chondrocytes with HT (a) prevented chondrocytes apoptosis, DNA”. Moreover, the “Downregulate Runx2” value in the data set with Runx2 is listed as “↓”.
On to `COc1cc(/C=C/C(=O)CC(=O)/C=C/c2ccc(O)c(OC)c2)ccc1O` [Curcumin, (1E,6E)-1,7-Bis(4-hydroxy-3-methoxyphenyl)-1,6-heptadiene-3,5-dione], for which the “Downregulate NF-κB” value with NF-κB was “↓”. In addition, the “IL-1β induced chondrocytes apoptosis” value in the data set on chondrocytes was “Inhibited IL-1β induced chondrocytes apoptosis, by suppressing caspase-3”. Also, in the data set with P38 MAPK, the “Downregulate P38 MAPK” value was “↓”. In addition, the antifungal activity entry in data set [11] was “potent antifungal activity”. Further, the “adhesion of Candida species to human buccal epithelial cells” value with Candida species is listed as “inhibitory effect”.
As to “(−)-epicatechin-(4β→8)-(−)-epicatechin [procyanidin B2]”, the OA progression result in the data set on OA animal model is “Pcy and components of Pcy (procyanidin B2 and B3) slowed OA progression,”.
As to `Oc1ccc(/C=C/c2cc(O)cc(O)c2)cc1` [Resveratrol, 3,5,4′-trihydroxy-trans-stilbene], the “Downregulate Bax” value with Bax is reported as “↓”. Also, the “Downregulate FGF” value in the data set with FGF is on record as “↓”. Also, the “Downregulate mTOR” value on mTOR is “↓”. Besides, in data set [12], the “body mass indices, serum cholesterol and C-reactive protein” value is “lowered”; the “glucose tolerance and endothelial function” value is on record as “improved”. The “knee swelling, histological score of synovial tissue, proliferating cell nuclear antigen (anti-PCNA), and proteins expressed by circulating microphages (CD 68, CD3)” value in data set [13] is reported as “Resveratrol significantly reduced knee swelling, histological score of synovial tissue,”. In addition, the “RA development and progression” value in the data set with RA is “Resveratrol inhibited RA development and progression by suppressing inflammation”. Moreover, in the data set on NF-κB, the “Downregulate NF-κB” value was “↓”. Also, the aerobic capacity result in the data set on male C57BL/6J mice is recorded as “significantly increased”. For the same compound, in the data set with mice fed high fat diet, the OA severity entry is given as “Significantly reduced”; the chondrocyte apoptosis result was “inhibited”; the “collagen type II expression” value is “increased”; the “type II collagen and proteoglycan degradation” value is “prevented”. In [14], the “expression of collagen type II” value was “maintained”; the “expression of iNOS and MMP-13” value is listed as “reduced”. In data set [15], the “apoptosis of rheumatoid arthritis synovial fibroblast (RASF)” value was “Resveratrol induced apoptosis of rheumatoid arthritis synovial fibroblast (RASF)”. For the same compound, the chondrocyte apoptosis result in data set [16] was “Reduced chondrocyte apoptosis mediated by (a) an inhibition of proapoptotic protein”. Further, in the data set on AP1, the “Downregulate AP1” value is listed as “↓”. Also, in data set [17], the “FGF and IL-1β induced chondrocytes apoptosis, expression of cartilage degrading proteases (MMPs and aggrecanases) and decrease in proteoglycan biosynthesis” value was “Significantly reduced fibroblast growth factor (FGF) and IL-1β induced chondrocytes”. Further, in data set [18], the “AGEs induced degradation of collagen type II” value is “production of NO and PGE2, prevented AGEs induced degradation of collagen type”; the “AGEs induced expression and activity of MMP-13” value was “II, and decreased AGEs induced expression and activity of MMP-13 by down”. Further, in the data set with C57BL/6 mice, the AC degradation entry is recorded as “delayed”, the OA symptoms entry was “reduced” and the matrix synthesis result is listed as “increased”. Moreover, the “Downregulate HIF-2α” value with HIF-2α is “↓”.
Consider epigallocatechin-3-gallate [EGCG], for which the “Downregulate NF-κB” value in the data set with NF-κB is on record as “↓”. In addition, in the data set on OA chondrocytes, the “AGEs induced expression of TNF-α and MMP-13” value is “Significantly decreased AGEs induced expression of TNF-α and MMP-13 in OA”. Moreover, in the data set with P38 MAPK, the “Downregulate P38 MAPK” value is listed as “↓”. For the same compound, the “IL-1β-induced IL-6 and IL-8 synthesis” value in the data set with RASF was “Inhibited IL-1β-induced IL-6 and IL-8 synthesis in RASF via suppressing”. Also, in the data set on AP1, the “Downregulate AP1” value is “↓”. The “chondrocyte proliferation, production of collagen type II and aggrecan” value in [19] is “Enhanced chondrocyte proliferation, production of collagen type II and aggrecan”. Also, the “osteogenic effect on hBMSCs” value in data set [20] is reported as “strong stimulatory effect”.
